Measured values reported in patent US20070117743A1, “New antitumoral compounds” (priority 2003, published 2007).
Where a SMILES comes first, the peptide text is derived from it. Bridges are numbered along the chain shown (N, C = ends). [ ]: non-standard residue; d: D form. The star is where a group is joined. d(aIle) = CC[C@H](C)[C@@H](N)C(=O)O; d(aThr) = C[C@@H](O)[C@@H](N)C(=O)O; Hexanoyl(5-Me) = CC(C)CCCC(=O)*; Orn = NCCC[C@H](N)C(=O)O; Dhb = C/C=C(\N)C(=O)O

Assays:
Type in all cases: cell-based, human
PANC-1 = test: SRB colorimetric assay of cell growth and viability, PANC-1; conditions: 48 hours exposure; for CC50: read-out: LC50 PANC-1
A-549 = test: SRB colorimetric assay of cell growth and viability, A-549; conditions: 48 hours exposure; for GI50: read-out: GI50 A-549; for CC50: read-out: LC50 A-549
HT-29 = test: SRB colorimetric assay of cell growth and viability, HT-29; conditions: 48 hours exposure; for GI50: read-out: GI50 HT-29; for CC50: read-out: LC50 HT-29
HeLa-APL = test: SRB colorimetric assay of cell growth and viability, HeLa-APL; conditions: 48 hours exposure; for CC50: read-out: LC50 HELA-APL
DU-145 = test: SRB colorimetric assay of cell growth and viability, DU-145; conditions: 48 hours exposure
SK-BR-3 = test: SRB colorimetric assay of cell growth and viability, SK-BR-3; conditions: 48 hours exposure
IGROV-ET = test: SRB colorimetric assay of cell growth and viability, IGROV-ET; conditions: 48 hours exposure; for CC50: read-out: LC50 IGROV-ET
K-562 = test: SRB colorimetric assay of cell growth and viability, K-562; conditions: 48 hours exposure; for CC50: read-out: LC50 K-562
HeLa = test: SRB colorimetric assay of cell growth and viability, HeLa; conditions: 48 hours exposure; for CC50: read-out: LC50 HELA
LoVo = test: SRB colorimetric assay of cell growth and viability, LoVo; conditions: 48 hours exposure; for CC50: read-out: LC50 LOVO
IGROV-1 = test: SRB colorimetric assay of cell growth and viability, IGROV-1; conditions: 48 hours exposure
LoVo-Dox = test: SRB colorimetric assay of cell growth and viability, LoVo-Dox; conditions: 48 hours exposure; for CC50: read-out: LC50 LOVO-DOX
Summary of the method: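 First, 5×10^3 cells per well attach for 18 hours in RPMI 1640 with 10% FBS at 37° C and 5% CO2. Next, samples spanning 10 to 10^−8 μg/mL are added for 48 hours. Finally, cells are fixed with TCA, stained with SRB for 10 minutes and read at 490 nm.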

LNCaP = test: SRB colorimetric assay of cell growth and viability, LNCaP; conditions: 48 hours exposure; for GI50: read-out: GI50 LN-caP; for CC50: read-out: LC50 LN-caP
SK-MEL-28 = test: SRB colorimetric assay of cell growth and viability, SK-MEL-28; conditions: 48 hours exposure; for CC50: read-out: LC50 MEL-28

C/C=C1\NC(=O)[C@H](Cc2ccccc2)NC(=O)[C@@H](C(C)C)NC(=O)[C@@H]([C@@H](C)CC)NC(=O)[C@H](NC(=O)[C@H](NC(=O)[C@H](CCCN)NC(=O)[C@H]2CCCN2C(=O)[C@H](NC(=O)[C@H](CCC(=O)O)NC(=O)[C@@H](NC(=O)[C@H](NC(=O)CCCC(C)C)C(C)C)[C@@H](C)O)C(C)C)[C@@H](C)CC)[C@@H](C)OC(=O)[C@H](C(C)C)NC1=O [Compound 51, [Glu^11]-KF] ({Hexanoyl(5-Me)}-[dV]TE[dV][dP][Orn][d(aIle)][d(aThr)][d(aIle)][dV]F[Dhb]V; ester 8-C) was tested, and the GI50 (PANC-1) was 6.63 µM, the “TGI PANC-1” value (PANC-1) was 6.63E−06 Molar and the CC50 (PANC-1) was 6.63 µM. The “TGI A-549” value (A-549) was 6.63E−06 Molar, the GI50 (A-549) was 6.63 µM and the CC50 (A-549) was 6.63 µM. For the same compound, the “TGI HT-29” value (HT-29) was 6.63E−06 Molar, the GI50 (HT-29) was 6.63 µM and the CC50 (HT-29) was 6.63 µM. For the same compound, the GI50 (HeLa-APL) was 6.63 µM, the “TGI HELA-APL” value (HeLa-APL) was 6.63E−06 Molar and the CC50 (HeLa-APL) was 6.63 µM. For the same compound, the GI50 (DU-145) was 6.63 µM, the LC50 (concentration causing 50% net cell kill) (DU-145) was 6.63 µM and the “TGI DU-145” value (DU-145) was 6.63E−06 Molar. For the same compound, the GI50 (SK-BR-3) was 6.63 µM, the LC50 (SK-BR-3) was 6.63 µM and the “TGI SK-BR-3” value (SK-BR-3) was 6.63E−06 Molar. For the same compound, the GI50 (IGROV-ET) was 6.63 µM, the “TGI IGROV-ET” value (IGROV-ET) was 6.63E−06 Molar and the CC50 (IGROV-ET) was 6.63 µM. The GI50 (K-562) was 6.63 µM, the “TGI K-562” value (K-562) was 6.63E−06 Molar and the CC50 (K-562) was 6.63 µM. For the same compound, the GI50 (HeLa) was 6.63 µM, the “TGI HELA” value (HeLa) was 6.63E−06 Molar and the CC50 (HeLa) was 6.63 µM. For the same compound, the GI50 (LoVo) was 6.63 µM, the “TGI LOVO” value (LoVo) was 6.63E−06 Molar and the CC50 (LoVo) was 6.63 µM. The GI50 (IGROV-1) was 6.63 µM, the LC50 (concentration causing 50% net cell killing) (IGROV-1) was 6.63 µM and the “TGI IGROV” value (IGROV-1) was 6.63E−06 Molar. For the same compound, the GI50 (LoVo-Dox) was 6.63 µM, the “TGI LOVO-DOX” value (LoVo-Dox) was 6.63E−06 Molar and the CC50 (LoVo-Dox) was 6.63 µM. For the same compound, the “TGI LN-caP” value (LNCaP) was 6.63E−06 Molar, the GI50 (LNCaP) was 6.63 µM and the CC50 (LNCaP) was 6.63 µM. For the same compound, the GI50 (SK-MEL-28) was 6.63 µM, the “TGI MEL-28” value (SK-MEL-28) was 6.63E−06 Molar and the CC50 (SK-MEL-28) was 6.63 µM.
With C/C=C1\NC(=O)[C@H](Cc2ccccc2)NC(=O)[C@@H](C(C)C)NC(=O)[C@@H]([C@@H](C)CC)NC(=O)[C@H](NC(=O)[C@H](NC(=O)[C@H](CCCN)NC(=O)[C@H]2CCCN2C(=O)[C@H](NC(=O)[C@@H](NC(=O)[C@@H](NC(=O)[C@H](NC(=O)CCCC(C)C)C(C)C)C(C)C)C(C)C)C(C)C)[C@@H](C)CC)[C@@H](C)OC(=O)[C@H](C(C)C)NC1=O [Compound 6, [Val^12]-KF] ({Hexanoyl(5-Me)}-[dV]VV[dV][dP][Orn][d(aIle)][d(aThr)][d(aIle)][dV]F[Dhb]V; ester 8-C) the GI50 (PANC-1) was 1.02 µM, the “TGI PANC-1” value (PANC-1) was 1.96E−06 Molar and the CC50 (PANC-1) was 3.8 µM. The “TGI A-549” value (A-549) was 8.54E−07 Molar, the GI50 (A-549) was 0.257 µM and the CC50 (A-549) was 2.36 µM. The “TGI HT-29” value (HT-29) was 2.68E−07 Molar, the GI50 (HT-29) was 0.148 µM and the CC50 (HT-29) was 0.485 µM. For the same compound, the GI50 (HeLa-APL) was 0.379 µM, the “TGI HELA-APL” value (HeLa-APL) was 1.04E−06 Molar and the CC50 (HeLa-APL) was 3.11 µM. The GI50 (DU-145) was 0.165 µM, the LC50 (concentration causing 50% net cell kill) (DU-145) was 0.523 µM and the “TGI DU-145” value (DU-145) was 2.94E−07 Molar. The GI50 (SK-BR-3) was 0.102 µM, the LC50 (SK-BR-3) was 0.482 µM and the “TGI SK-BR-3” value (SK-BR-3) was 2.22E−07 Molar. The GI50 (IGROV-ET) was 0.154 µM, the “TGI IGROV-ET” value (IGROV-ET) was 2.91E−07 Molar and the CC50 (IGROV-ET) was 0.549 µM. The GI50 (K-562) was 0.661 µM, the “TGI K-562” value (K-562) was 1.44E−06 Molar and the CC50 (K-562) was 3.07 µM. The GI50 (HeLa) was 0.144 µM, the “TGI HELA” value (HeLa) was 2.63E−07 Molar and the CC50 (HeLa) was 0.48 µM. For the same compound, the GI50 (LoVo) was 0.133 µM, the “TGI LOVO” value (LoVo) was 2.48E−07 Molar and the CC50 (LoVo) was 0.463 µM. The GI50 (IGROV-1) was 0.15 µM, the LC50 (concentration causing 50% net cell killing) (IGROV-1) was 0.598 µM and the “TGI IGROV” value (IGROV-1) was 2.99E−07 Molar. For the same compound, the GI50 (LoVo-Dox) was 0.159 µM, the “TGI LOVO-DOX” value (LoVo-Dox) was 2.83E−07 Molar and the CC50 (LoVo-Dox) was 0.503 µM. The “TGI LN-caP” value (LNCaP) was 1.00E−06 Molar, the GI50 (LNCaP) was 0.313 µM and the CC50 (LNCaP) was 2.78 µM. The GI50 (SK-MEL-28) was 0.175 µM, the “TGI MEL-28” value (SK-MEL-28) was 2.94E−07 Molar and the CC50 (SK-MEL-28) was 0.492 µM.
